Test results reported in the supplement of paper PMC8671470.

Legend:
Conditions in all cases: 72 h
MOLM-13 = assay: cell viability (% survival relative to DMSO control, bortezomib = 0%); higher = less cytotoxic
Method in brief: (§1)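 Fifteen myeloid leukaemia cell lines (10 AML, 5 CML) were seeded at a density titrated to the linear growth range into 384-well plates pre-printed with compounds at 1, 10, 100, 1000 or 10000 nM in duplicate. Plates were incubated for 72 h at 37 °C with 5% CO2. Viability was then read by CellTiter-Glo luminescence. Each value is percent survival averaged over the duplicates, with vehicle set to 100% and a 10 µM positive control to 0%.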

KCL-22 = assay: as above
Method in brief: as §1

KG-1 = assay: as above
Method in brief: as §1

HL-60 = assay: area under dose-response curve (viability, 1 nM-10 uM) (fraction (0-1)); higher = more sensitive
Method in brief: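 Four-parameter log-logistic fits in drc and PharmacoGx supplied area under the curve where it is given. Underlying viability came from CellTiter-Glo, normalised to DMSO and proteasome-inhibitor wells, with the proteasome inhibitor at 10 μM. HL-60 cells in RPMI 1640 plus 10% FBS had been rescreened against the full library at five tenfold concentrations of 1–10,000 nM, in duplicate on 384-well plates, with DMSO or 100 nM of one of three metabolic inhibitors, for 72 h at 37 °C, 5% CO2.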

[1] = tested on: myeloid leukemia patient primary cells Pat.5; assay: cell viability (% survival relative to DMSO control); higher = less cytotoxic
Method in brief: (§2)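 Seventy compounds were pre-printed on 384-well plates at five tenfold concentrations between 1 and 10,000 nM, in duplicate. Thawed mononuclear cells purified by Ficoll from AML or CML patients were added at 10,000 cells/well in RPMI 1640 with 10% FBS for 72 h. Viability by CellTiter-Glo was normalised to DMSO and 10 μM proteasome-inhibitor wells. Where stated, area under the curve was taken from log-logistic fits made with the drc and PharmacoGx R packages, each fit having four parameters.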

[2] = tested on: myeloid leukemia patient primary cells Pat.3; assay: as above
Method in brief: as §2

[3] = tested on: myeloid leukemia patient primary cells Pat.6; assay: as above
Method in brief: as §2

[4] = tested on: myeloid leukemia patient primary cells Pat.15; assay: as above
Method in brief: as §2

[5] = tested on: myeloid leukemia patient primary cells Pat.12; assay: as above
Method in brief: as §2

[6] = tested on: myeloid leukemia patient primary cells Pat.7; assay: as above
Method in brief: as §2

[7] = tested on: myeloid leukemia patient primary cells Pat.10; assay: as above
Method in brief: as §2

[8] = tested on: myeloid leukemia patient primary cells Pat.4; assay: as above
Method in brief: as §2

[9] = tested on: myeloid leukemia patient primary cells Pat.2; assay: as above
Method in brief: as §2

[10] = tested on: myeloid leukemia patient primary cells Pat.11; assay: as above
Method in brief: as §2

[11] = tested on: myeloid leukemia patient primary cells Pat.8; assay: as above
Method in brief: as §2

[12] = tested on: myeloid leukemia patient primary cells Pat.13; assay: as above
Method in brief: as §2

[13] = tested on: myeloid leukemia patient primary cells Pat.14; assay: as above
Method in brief: as §2

[14] = tested on: myeloid leukemia patient primary cells Pat.1; assay: as above
Method in brief: as §2

Cc1c(-c2ccc(-c3ccccc3F)cc2)nc2ccc(F)cc2c1C(=O)O [Brequinar]
Conditions | area under dose-response curve, co-treatment: pictilisib 100 nM | cell viability, 1 nM [%] | cell viability, 10 nM [%] | cell viability, 100 nM [%] | cell viability, 1000 nM [%] | cell viability, 10000 nM [%]
HL-60 | < 0.0301 | – | – | – | – | –
KCL-22 | – | 101 | 94.3 | 97.9 | 56.3 | 29.2
KG-1 | – | 105 | 102 | 95 | 105 | 99
MOLM-13 | – | 80.9 | 84.4 | 85.3 | 95.9 | 9.24
[1] | – | 66.1 | 60.8 | 47.9 | 33.1 | 6.89
[2] | – | > 100 | 58 | 30 | 33.1 | 20.7
[3] | – | > 100 | > 100 | 93.9 | 97.8 | 96.8
[4] | – | 91.1 | 85.4 | 87.7 | 98.9 | 87.7
[5] | – | 22 | 99 | 93.2 | 98.4 | 95
[6] | – | 81.2 | 87.1 | 62 | 60.6 | 55.3
[7] | – | 58.9 | 81.4 | 56.6 | 77.9 | 57.7
[8] | – | 0.431 | 90.6 | 94.7 | 87.5 | 86.4
[9] | – | > 100 | 92.7 | 97.1 | 95.2 | 99.9
[10] | – | 97.9 | > 100 | > 100 | > 100 | 97.7
[11] | – | 91.5 | 82 | 78 | 97.6 | 88.4
[12] | – | > 100 | 93.4 | 96.6 | 94.2 | 84.6
[13] | – | 89.4 | 81.1 | 73.4 | 65.6 | 32.3
[14] | – | 93.1 | 89.3 | 97.5 | 92.2 | 88.6

O=C1O/C(=C/Br)CCC1c1cccc2ccccc12 (stereo not given) [Bromoenol Lactone]
Conditions | area under dose-response curve, co-treatment: AZD3965 100 nM | area under dose-response curve, co-treatment: DMSO vehicle | area under dose-response curve, co-treatment: GSK2194069 100 nM | area under dose-response curve, co-treatment: pictilisib 100 nM | cell viability, 1 nM [%] | cell viability, 10 nM [%] | cell viability, 100 nM [%] | cell viability, 1000 nM [%] | cell viability, 10000 nM [%]
HL-60 | < 0.0301 | < 0.0301 | < 0.0301 | < 0.0301 | – | – | – | – | –
KCL-22 | – | – | – | – | 95.3 | 93.1 | 104 | 86.6 | 52.2
KG-1 | – | – | – | – | 97.7 | 97.7 | 101 | 89.8 | 56.6
MOLM-13 | – | – | – | – | 96.5 | 94 | 112 | 91.5 | 44.1
[1] | – | – | – | – | 44.7 | 34.4 | 7.92 | 1.18 | 2.24
[2] | – | – | – | – | 89.5 | 82.1 | 62.3 | 1.83 | < 0
[3] | – | – | – | – | 91.1 | 89.2 | > 100 | 86 | 33.1
[4] | – | – | – | – | 89.3 | 91.6 | 96.4 | 89 | 3.92
[5] | – | – | – | – | 100 | > 100 | 92.4 | 90.9 | 33.9
[6] | – | – | – | – | 57.6 | 75.8 | 76.4 | 30 | < 0
[7] | – | – | – | – | 63.6 | 47.6 | 46.5 | 10.6 | < 0
[8] | – | – | – | – | 64.7 | 93.3 | 85.8 | 53.4 | 3.26
[9] | – | – | – | – | 96.5 | > 100 | 97.2 | 93.6 | 29.4
[10] | – | – | – | – | > 100 | 94.6 | 99.2 | 87.7 | 57.2
[11] | – | – | – | – | 75.9 | 91.1 | 70 | 81.3 | 30
[12] | – | – | – | – | 80.2 | 89.3 | 89.3 | 82.2 | 28.1
[13] | – | – | – | – | 78.2 | 83.5 | 73.9 | 21.8 | < 0
[14] | – | – | – | – | 68.2 | 90.4 | 79.3 | 69.3 | 14.6
